Results on four compounds are retold here after patent publication US7390830B1, “Remedies or prophylactics for diseases in association with chemokines” (Teijin Limited, priority 1999, dated 2008).

Test [1] concerns the target T1, human MCP-1 binding to THP-1 cells (Homo sapiens, UniProt P41597).
T1 construct: endogenous in cells; host or cells: THP-1 (whole cells)
T1 sequence (P41597 1-360 isoform P41597-2): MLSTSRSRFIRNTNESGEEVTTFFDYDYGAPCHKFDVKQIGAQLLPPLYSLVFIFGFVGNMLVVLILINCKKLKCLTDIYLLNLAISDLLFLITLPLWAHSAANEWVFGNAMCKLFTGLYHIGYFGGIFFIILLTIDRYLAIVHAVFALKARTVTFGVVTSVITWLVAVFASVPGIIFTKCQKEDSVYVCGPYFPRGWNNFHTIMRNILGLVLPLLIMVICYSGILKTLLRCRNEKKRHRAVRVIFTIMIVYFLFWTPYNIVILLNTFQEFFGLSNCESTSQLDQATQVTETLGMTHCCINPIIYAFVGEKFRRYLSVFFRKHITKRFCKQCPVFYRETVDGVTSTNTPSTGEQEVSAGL
The test is described as follows: Inhibitory activity against binding of [125I]-labeled human MCP-1 to THP-1 cells (method 1). Conditions: concentration of 10 μM. The text has this: Two kinds of DNA synthetic primers (5′-[…]-3′ (SEQ ID NO:1) and 5′-[…]-3′) (SEQ ID NO:2) having restriction enzyme recognition sites applied on the basis of the known human MCP-1 gene sequence (see, for example, Yoshimura, T. et al. FEBS Letters 1989, 244, 487-493) were used to amplify a cDNA derived from human vascular endothelial cells (purchased from Kurabow) according to a PCR method. The amplified fragment was cleaved with restriction enzymes (PstI and XbaI) and then ligated into a transfer vector pVL1393 (Invitrogen Co.). The resulting vector was co-transfected with an infectious baculovirus into Sf-9 insect cells. […]
After completing the reaction, the reaction solution was filtered through a filter, and the filter was washed with 200 μL of cold PBS twice (the reaction solution was filtered after adding 200 μL of the cold PBS). The filter was air-dried and […] of liquid scintillator was then added into each well to count the radioactivity retained by the cells on the filter using TopCount (Packard Instrument Co.).
The count when 100 ng of the above human MCP-1 expressed with baculovirus (unlabeled) instead of the test compound was added was subtracted as nonspecific adsorption, and the count when the test compound was not added was taken as 100%. Thereby, the inhibitory activity of the test compound against binding of the human MCP-1 to THP-1 cells was calculated. […]

The subject of test [2] is collagen-induced arthritis. The test is described as follows: Collagen-induced arthritis in mice. The class given is in vivo, DBA/1 mice.
In test [3] the test system is chronic relapsing experimental allergic encephalomyelitis. The test is described as follows: Chronic relapsing experimental allergic encephalomyelitis in mice. It counts as in vivo, SJL/J×PL/J F1 mice. Conditions: for Onset Date, First Attack: SJL/J×PL/J F1 mice; for Onset Date, First Attack / Duration of Clinical Sign, First Attack / Onset Date, Second Attack (Relapse): to 41 days after injection of the emulsion; for Maximal Clinical Score, First Attack / Maximal Clinical Score, Second Attack (Relapse): score 0-5, to 41 days after injection of the emulsion.

For test [4], the system named is glomerulonephritis induced by anti-glomerular basement membrane serum. The test is described as follows: Masugi's nephritis model in WKY rats. Conditions: for inhibition of the concentration of urinary proteins / decrease of creatinine concentration in blood: vs control; for decrease of creatinine concentration in blood: 15th day after antiserum. The class given is in vivo. The procedure: Rabbits were immunized with a trypsin fraction of rat kidney cortex to provide an anti-glomerular basement membrane serum which was intravenously injected to 4-weeks-old female WKY rats (Charles River) in a dose of 2.5 mL/kg body weight to induce glomerulonephritis. After injection of the antiserum, urine of each animal was collected for 24 hours with metabolic cages for rats (Clea Japan, Inc.) on the 1st, 4th, 7th, 10th and 14th days after the injection. The amount of the urine was measured by urine weight and the protein content in the urine was measured by using a kit for assaying proteins in urine and cerebrospinal fluid (Tonein TP-II, Otsuka Pharmaceutical Co., Ltd.) to determine the amount of proteins excreted in urine per day. Serum of the animals subjected to the experiments was collected on the 15th day after injecting the antiserum, and creatinine concentration in blood was measured with a creatinine assay kit (Autosera®), Daiichi Pure Chemicals Co., Ltd.) using a Hitach±7070 model autoanalyzer. The test compound was daily orally administered in a dose of 100 mg/kg body weight twice a day from the date of injecting the anti-glomerular basement membrane serum (about 10:00 a.m. and about 6:00 p.m. in Experiment 1 and about 10:00 a.m. and about 5:00 p.m. in Experiment 2). In the control group, only the solution (a 0.5% aqueous solution of sodium carboxymethylcellulose) was orally administered. The administration volume was 10 mL/kg body weight, and the number of animals (N) was 10.

For test [5], the target named is T2, human MIP-1 α binding to THP-1 cells (Homo sapiens, UniProt P32246).
T2 construct: endogenous in cells; host or cells: THP-1 (whole cells)
T2 sequence (P32246 1-355): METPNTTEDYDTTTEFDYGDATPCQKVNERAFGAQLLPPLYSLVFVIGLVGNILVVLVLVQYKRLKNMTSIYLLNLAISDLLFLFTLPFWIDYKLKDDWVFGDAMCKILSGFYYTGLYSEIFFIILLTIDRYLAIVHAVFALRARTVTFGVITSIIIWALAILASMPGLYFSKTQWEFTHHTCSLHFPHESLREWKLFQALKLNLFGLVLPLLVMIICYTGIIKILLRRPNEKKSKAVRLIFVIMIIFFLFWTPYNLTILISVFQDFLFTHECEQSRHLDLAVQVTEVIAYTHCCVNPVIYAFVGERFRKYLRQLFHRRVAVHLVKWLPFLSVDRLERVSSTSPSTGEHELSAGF
Description: Inhibitory activity against binding of MIP-1 α to THP-1 cells. The conditions noted are these: concentration of 2 μM. As to the method:
THP-1 cells which are human monocytic leukemia cell line were suspended in an assay buffer [prepared by adding 0.1% of BSA and 25 mM of HEPES to RPMI-1640 (Gibco-BRL Co.) and adjusting the pH to 7.4] so as to provide 1×10^7 cells/mL to thereby afford a cell suspension. A solution obtained by diluting the test compound with the assay buffer was used as a test compound solution. A solution prepared by diluting an iodine-labeled human MIP-1 α (DuPont NEN Co.) with the assay buffer so as to provided 250 nCi/mL was used as a labeled ligand solution. […]
After completing the reaction, the reaction solution was filtered through a filter, and the filter was washed with 200 μL of cold PBS twice (the reaction solution was filtered after adding 200 μL of the cold PBS). The filter was air-dried, and 25 μL of liquid scintillator was then added into each well to count the radioactivity retained by the cells on the filter using TopCount (Packard Instrument Co.).
The count when 100 ng of an unlabeled human MIP-1 α (Peprotech Co.) instead of the test compound was added was subtracted as nonspecific adsorption, and the count when the test compound was not added was taken as 100%. Thereby, the inhibitory activity of the test compound against binding of the human MIP-1 α to THP-1 cells was calculated. […]

For test [6], the system named is collagen-induced arthritis. The test is described as follows: Collagen-induced arthritis in rats. Conditions: 300 mg/kg orally every day for 3 weeks, 5, 7, 9, 12 and 14 days after boosting. The class given is in vivo, Lewis female rats.
The mark [7] stands for this setting: 100 mg/kg body weight orally, vs control.
Where [8] appears, read: 7th day after antiserum, 100 mg/kg orally twice a day.
The mark [9] stands for this setting: 10th day after antiserum, 100 mg/kg orally twice a day.
Where [10] appears, read: 14th day after antiserum, 100 mg/kg orally twice a day.
Where [11] appears, read: 300 mg/kg body weight oral, to 21 days after injection of the emulsion.
Where [12] appears, read: 300 mg/kg body weight orally, vs control.

A word on the inhibition: it is the share of the control response that was lost under treatment. Read a low inhibition as a weak effect. In test [1], `O=C(CNC(=O)c1cccc(C(F)(F)F)c1)NCC1CCN(Cc2cccc(OC(F)(F)F)c2)CC1` [Compd. No. 927, 1-[3-(trifluoromethoxy)benzyl]-4-[(N-(3-(trifluoromethyl)benzoyl)glycyl)aminomethyl]piperidine] gave an inhibition at 10 µM of 20 to 50%.
In the case of `Nc1ccc(C(F)(F)F)cc1C(=O)NCC(=O)N[C@@H]1CCN(Cc2ccc(Cl)cc2)C1` [Compd. No. 1583], in test [2] (knee joint, oral 12 weeks), the “chondrolysis of articular cartilages” value is “significantly inhibited”, the “osteolysis of subchondral bone” value is given as “significantly inhibited” and the synovial hyperplasia result is reported as “significantly inhibited”. Moreover, the arthritis scores entry in test [2] (orally once a day for 12 weeks, vs control group) was “significantly inhibited arthritis scores”. Moreover, in test [3] (30 mg/kg body weight oral), the “Onset Date, First Attack” value came out at 12.3 ± 1.9; the “Maximal Clinical Score, First Attack” value is reported as 3.5 ± 0.9; the “Maximal Clinical Score, Second Attack (Relapse)” value is 3.7 ± 0.6; the “Duration of Clinical Sign, First Attack” value worked out at 9.8 ± 3.3. The “Onset Date, Second Attack (Relapse)” value in test [3] (30 mg/kg body weight oral) turned out to be 26.3 ± 3.4. The “onset date, symptoms and onset period at the first attack” value in test [3] (30 mg/kg body weight orally, vs control) is “distinct effects on the items were not found”. Moreover, in test [3] (100 mg/kg body weight oral), the “Onset Date, First Attack” value is 13.6 ± 2.0; the “Maximal Clinical Score, First Attack” value is given as 2.4 ± 1.3; the “Maximal Clinical Score, Second Attack (Relapse)” value turned out to be 3.0 ± 0.9; the “Duration of Clinical Sign, First Attack” value is listed as 5.7 ± 3.8. Further, the “Onset Date, Second Attack (Relapse)” value in test [3] (100 mg/kg body weight oral) turned out to be 28.5 ± 4.7. In test [3] (setting [7]), the “onset date at the first attack” value was “tendency to delay the onset date (no significant difference)”, the “onset period at the first attack” value was “shortening of onset period (p<0.05)” and the “symptoms (clinical scores) at the first attack” value is listed as “symptom inhibition (p<0.05)”. In addition, the “inhibition of the concentration of urinary proteins” value (from here on “inhibition … of urinary proteins”) in test [4] (setting [8]) is 26%. Moreover, the “inhibition … of urinary proteins” value in test [4] (setting [9]) amounted to 51%. For the same compound, in test [4] (setting [10]), the “inhibition … of urinary proteins” value was 54%. Besides, in test [4] (100 mg/kg orally twice a day), the “decrease of creatinine concentration in blood” value is given as 20%. Besides, in test [4] (on the 15th Day, 100 mg/kg orally twice a day), the “Serum Creatinine Concentration” value is 0.39 ± 0.03 mg/dL.
Consider `CCOc1cccc(C(=O)N[C@H](Cc2ccccc2)C(=O)NCC2CCN(Cc3ccc(Cl)cc3)CC2)c1` [Compd. No. 2091, 1-(4-chlorobenzyl)-4-[[N-(3-ethoxybenzoyl)-D-phenylalanyl]aminomethyl]piperidine], for which the inhibition at 2 µM in test [5] is 50 to 80%.
`Nc1cc(F)c(F)cc1C(=O)NCC(=O)NCC1CCN(Cc2ccc(Cl)cc2)CC1` [compound 1245]: the “joint swelling (hindlimb footpad volume)” value in test [6] is on record as “significantly inhibited joint swelling”. In addition, in test [3] (300 mg/kg body weight oral, score 0-5, to 21 days after injection of the emulsion), the “Maximal Clinical Score” value was found to be 2.5 ± 1.5. The “Duration of Clinical Sign” value in test [3] (setting [11]) came out at 5.4 ± 2.4. In test [3] (setting [11]), the “Incidence (Number of Onset Animals/Number of Immunized Animals)” value is given as 17/19. For the same compound, the “onset date” value in test [3] (setting [11]) is on record as 13.2 ± 2.4; in test [3] (setting [12]) it was “delay in onset date (p<0.05)”. Besides, in test [3] (setting [12]), the “symptoms (clinical scores)” value is given as “tendency to inhibit symptoms (no significant difference)”. Further, the “inhibition … of urinary proteins” value is given as 74% in test [4] (4th day after antiserum, 100 mg/kg orally twice a day); 85% in test [4] (setting [8]); 81% in test [4] (setting [9]); 82% in test [4] (setting [10]). In addition, the “decrease of creatinine concentration in blood” value in test [4] (100 mg/kg orally twice a day) worked out at 10%. In test [4] (WKY rats, Experiment 2, 100 mg/kg body weight orally twice a day, 15th day after injecting anti-glomerular basement membrane serum, mean ± spread), the “Serum Creatinine Concentration on the 15th Day” value amounted to 0.48 ± 0.04 mg/dL.
